Experimental data reported in PubChem BioAssay (NCI).
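In this assay, cells in 96-well plates receive the compound at five concentrations for 48 hours. Endpoints are linearly interpolated between the surrounding concentrations. The concentration for full growth arrest is given as TGI.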

Columns and labels:
Test in all cases: growth of human tumour cells (NCI), 48 h
[1] = system: IGROV1 ovarian
[2] = system: SW-620 colon
[3] = system: OVCAR-5 ovarian
[4] = system: HS 578T breast
[5] = system: KM12 colon
[6] = system: COLO 205 colon
[7] = system: A498 renal
[8] = system: HT29 colon
[9] = system: SN12C renal
[10] = system: HCC-2998 colon
[11] = system: CAKI-1 renal
[12] = system: NCI-H522 lung
[13] = system: SK-MEL-5 melanoma
[14] = system: NCI-H226 lung
[15] = system: UO-31 renal
[16] = system: EKVX NSCLC
[17] = system: BT-549 breast
[18] = system: OVCAR-8 ovarian
[19] = system: SF-539 CNS
[20] = system: M14 melanoma

## C[C@H](CCC(=O)NCCS(=O)(=O)O)[C@H]1CC[C@H]2[C@@H]3[C@H](O)C[C@@H]4C[C@H](O)CC[C@]4(C)[C@H]3CC[C@]12C
[1]
  TGI: > 100 µM
[2]
  TGI: > 100 µM
[3]
  TGI: > 100 µM
[4]
  TGI: > 100 µM
[5]
  TGI: > 100 µM
[6]
  TGI: > 100 µM
[7]
  TGI: > 100 µM
[8]
  TGI: > 100 µM
[9]
  TGI: > 100 µM
[10]
  TGI: > 100 µM
[11]
  TGI: > 100 µM
[12]
  TGI: > 100 µM
[13]
  TGI: > 100 µM
[14]
  TGI: > 100 µM
[15]
  TGI: > 100 µM
[16]
  TGI: > 100 µM
[17]
  TGI: > 100 µM
[18]
  TGI: > 100 µM
[19]
  TGI: > 100 µM
[20]
  TGI: > 100 µM

## Nc1nc(Cl)c(N)c(NCC2(CO)CCC(CCc3ccccc3)C2)n1 (stereo not given)
[1]
  TGI: > 62.4 µM
[2]
  TGI: 27.2 µM
[3]
  TGI: 63.5 µM
[4]
  TGI: > 63.8 µM
[5]
  TGI: 28.9 µM
[6]
  TGI: 25.1 µM
[7]
  TGI: 49.5 µM
[8]
  TGI: 29.2 µM
[9]
  TGI: 63.2 µM
[10]
  TGI: 31.9 µM
[11]
  TGI: 47.2 µM
[12]
  TGI: 26.3 µM
[13]
  TGI: 15.1 µM
[14]
  TGI: 42.5 µM
[15]
  TGI: 41.7 µM
[16]
  TGI: > 69.9 µM
[17]
  TGI: 32.6 µM
[18]
  TGI: 38.1 µM
[19]
  TGI: 33.7 µM
[20]
  TGI: 27.4 µM

## C=CCc1oc(C)nc1CCCC
[1]
  TGI: > 100 µM
[2]
  TGI: > 100 µM
[3]
  TGI: > 100 µM
[4]
  TGI: > 100 µM
[5]
  TGI: > 100 µM
[6]
  TGI: > 100 µM
[7]
  TGI: > 100 µM
[8]
  TGI: > 100 µM
[9]
  TGI: > 100 µM
[10]
  TGI: > 100 µM
[11]
  TGI: > 100 µM
[12]
  TGI: > 100 µM
[13]
  TGI: > 100 µM
[14]
  TGI: > 100 µM
[15]
  TGI: > 100 µM
[16]
  TGI: > 100 µM
[17]
  TGI: > 100 µM
[18]
  TGI: > 100 µM
[19]
  TGI: > 100 µM
[20]
  TGI: > 100 µM

## CSC1(C(=O)O)C2CCC3C2CCC31 (stereo not given)
[1]
  TGI: > 100 µM
[2]
  TGI: > 100 µM
[3]
  TGI: > 100 µM
[4]
  TGI: > 100 µM
[5]
  TGI: > 100 µM
[6]
  TGI: > 100 µM
[7]
  TGI: > 100 µM
[8]
  TGI: > 100 µM
[9]
  TGI: > 100 µM
[10]
  TGI: > 100 µM
[11]
  TGI: > 100 µM
[12]
  TGI: > 100 µM
[13]
  TGI: > 100 µM
[14]
  TGI: > 100 µM
[15]
  TGI: > 100 µM
[16]
  TGI: > 100 µM
[17]
  TGI: > 100 µM
[18]
  TGI: > 100 µM
[19]
  TGI: > 100 µM
[20]
  TGI: > 100 µM

## COc1ccc(-c2c(-c3ccccc3)c(C)nc3[nH]c(=S)[nH]c(=S)c23)cc1OC
[1]
  TGI: > 100 µM
[2]
  TGI: > 100 µM
[3]
  TGI: > 100 µM
[4]
  TGI: > 100 µM
[5]
  TGI: 42.7 µM
[6]
  TGI: 72.1 µM
[7]
  TGI: > 100 µM
[8]
  TGI: > 100 µM
[9]
  TGI: 83.3 µM
[10]
  TGI: > 100 µM
[11]
  TGI: > 100 µM
[12]
  TGI: 85.8 µM
[13]
  TGI: > 100 µM
[14]
  TGI: > 100 µM
[15]
  TGI: 68.4 µM
[16]
  TGI: > 100 µM
[17]
  TGI: > 100 µM
[18]
  TGI: > 100 µM
[19]
  TGI: 50.8 µM
[20]
  TGI: > 100 µM
